Read-outs that look alike come from different tables or passages of the source.
Tests used:
PIK3Cδ_h = PIK3Cδ_h (Homo sapiens (Human), UniProt O00329); assay: KINOMEscan enzyme binding assay, PIK3Cδ; conditions: DiscoveRx
Protocol: (§1) Enzyme Binding Assays (KINOMEscan®) Kinase enzyme binding affinities of compounds disclosed herein were determined using the KINOMEscan technology performed by DiscoveRx Corporation, San Diego, Calif., USA (www.kinomescan.com). Table A reports the obtained Kd values (nM), with the Kd being the inhibitor binding constant: […]

[1] = tested on: Akt phosphorylated at Thr308 in PC-3 cells; assay: Cellular assay: phosphorylation of Akt (Thr308) in PC-3 cells, MSD ELISA; type: cell-based; conditions: 60 min incubation with compound, read-out: IC50 pAkt_Thr308
Protocol: (§2) Cellular activity of PI3Kβ inhibitors was determined by quantifying the phosphorylation of Akt in PC-3 cells. Akt phosphorylated at Ser473 and Thr308 were measured using an enzyme-linked immunosorbent assay (ELISA; Meso Scale Discovery (MSD), Gaithersburg, Md.) and specific primary antibodies from MSD.
(§3) On day 1, PC3 cells (ATCC # […]) were seeded into PerkinElmer MW96 plates at 25.000 cells per well, in 75 μl complete culture medium (DMEM (Dulbecco's Modified Eagle's Medium) high glucose, AQmedia™, D0819, Sigma-Aldrich) containing 10% heat inactivated FCS (Fetal Bovine Serum) and incubated at 37° C., 5% CO2 during 24 hours. On day 2, compound or DMSO (dimethyl sulfoxide) (0.3%) was added and cells were further incubated for 60 min at 37° C., 5% CO2 in a total volume of 100 μl of medium.
(§4) The phosphoprotein assay was executed according to vendor instructions in the Phospho-Akt (Ser473) Assay Whole Cell Lysate Kit (MSD # K15100D-3) and the Phospho-Akt (Thr308) Assay Whole Cell Lysate Kit (MSD # K151DYD-3) using the lysis, blocking and wash buffer provided.
(§5) Briefly, at the end of the cell treatment period, media were removed by aspiration and adherent cells were lysed in 50 μl ice-cold lysis buffer. MSD plates are supplied pre-coated with capture antibodies for Phospho-Akt (Ser473 and Thr308). After blocking, lysates from tissue culture plates were added and plates were washed. Then, a solution containing the detection antibody (anti-total Akt conjugated with an electrochemiluminescent compound-MSD Sulfo-tag label) was added. The signals were detected using an MSD SECTOR Imager 6000 and are proportional to the phospho-Akt titres.
(§6) Data were processed. The percentage of inhibition was plotted against the log concentration of test compounds, and the sigmoidal log concentration-effect curve of best fit was calculated by nonlinear regression analysis. From these concentration-response curves, the IC50 values were calculated. Five concentrations were used for curve fitting.

MTOR_h = MTOR_h (Homo sapiens (Human), UniProt P42345); assay: KINOMEscan enzyme binding assay, MTOR; conditions: DiscoveRx
Protocol: (§7) Enzyme Binding Assays (KINOMEscan®) Kinase enzyme binding affinities of compounds disclosed herein were determined using the KINOMEscan technology performed by DiscoveRx Corporation, San Diego, Calif., USA (www.kinomescan.com).

PIK3Cα_h = PIK3Cα_h (Homo sapiens (Human), UniProt P42336); assay: KINOMEscan enzyme binding assay, PIK3Cα; conditions: DiscoveRx
Sequence of PIK3Cα_h (P42336 whole entry): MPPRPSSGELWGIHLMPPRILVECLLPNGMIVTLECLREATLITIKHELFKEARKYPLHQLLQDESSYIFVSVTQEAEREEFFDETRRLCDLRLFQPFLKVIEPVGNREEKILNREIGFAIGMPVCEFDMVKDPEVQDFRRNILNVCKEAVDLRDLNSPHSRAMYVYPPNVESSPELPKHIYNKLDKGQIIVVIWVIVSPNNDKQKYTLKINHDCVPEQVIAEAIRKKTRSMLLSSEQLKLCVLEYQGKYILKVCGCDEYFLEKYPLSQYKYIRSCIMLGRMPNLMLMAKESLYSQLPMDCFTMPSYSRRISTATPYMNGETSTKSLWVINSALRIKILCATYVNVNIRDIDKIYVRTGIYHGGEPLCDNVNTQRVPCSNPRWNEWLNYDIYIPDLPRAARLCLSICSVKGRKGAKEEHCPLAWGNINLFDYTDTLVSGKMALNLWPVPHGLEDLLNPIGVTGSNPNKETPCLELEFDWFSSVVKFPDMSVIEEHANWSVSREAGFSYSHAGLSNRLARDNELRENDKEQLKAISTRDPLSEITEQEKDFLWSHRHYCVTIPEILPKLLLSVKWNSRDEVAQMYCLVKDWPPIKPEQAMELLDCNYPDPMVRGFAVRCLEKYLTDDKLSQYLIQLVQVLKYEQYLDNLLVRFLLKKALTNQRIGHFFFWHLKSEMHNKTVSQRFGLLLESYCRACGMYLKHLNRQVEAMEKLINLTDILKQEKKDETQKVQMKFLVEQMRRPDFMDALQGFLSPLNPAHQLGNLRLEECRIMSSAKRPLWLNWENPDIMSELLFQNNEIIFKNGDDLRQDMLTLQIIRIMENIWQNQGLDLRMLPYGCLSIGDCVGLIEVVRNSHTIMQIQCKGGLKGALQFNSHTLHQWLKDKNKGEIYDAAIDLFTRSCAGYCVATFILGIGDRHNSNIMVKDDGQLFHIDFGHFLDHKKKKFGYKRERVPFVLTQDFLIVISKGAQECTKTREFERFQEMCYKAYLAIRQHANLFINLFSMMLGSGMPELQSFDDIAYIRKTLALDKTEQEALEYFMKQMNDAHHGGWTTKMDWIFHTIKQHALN
Protocol: as §7

PIK3Cβ_h = PIK3Cβ_h (Homo sapiens (Human), UniProt P42338); assay: KINOMEscan enzyme binding assay, PIK3Cβ; conditions: DiscoveRx
Sequence of PIK3Cβ_h (P42338 whole entry): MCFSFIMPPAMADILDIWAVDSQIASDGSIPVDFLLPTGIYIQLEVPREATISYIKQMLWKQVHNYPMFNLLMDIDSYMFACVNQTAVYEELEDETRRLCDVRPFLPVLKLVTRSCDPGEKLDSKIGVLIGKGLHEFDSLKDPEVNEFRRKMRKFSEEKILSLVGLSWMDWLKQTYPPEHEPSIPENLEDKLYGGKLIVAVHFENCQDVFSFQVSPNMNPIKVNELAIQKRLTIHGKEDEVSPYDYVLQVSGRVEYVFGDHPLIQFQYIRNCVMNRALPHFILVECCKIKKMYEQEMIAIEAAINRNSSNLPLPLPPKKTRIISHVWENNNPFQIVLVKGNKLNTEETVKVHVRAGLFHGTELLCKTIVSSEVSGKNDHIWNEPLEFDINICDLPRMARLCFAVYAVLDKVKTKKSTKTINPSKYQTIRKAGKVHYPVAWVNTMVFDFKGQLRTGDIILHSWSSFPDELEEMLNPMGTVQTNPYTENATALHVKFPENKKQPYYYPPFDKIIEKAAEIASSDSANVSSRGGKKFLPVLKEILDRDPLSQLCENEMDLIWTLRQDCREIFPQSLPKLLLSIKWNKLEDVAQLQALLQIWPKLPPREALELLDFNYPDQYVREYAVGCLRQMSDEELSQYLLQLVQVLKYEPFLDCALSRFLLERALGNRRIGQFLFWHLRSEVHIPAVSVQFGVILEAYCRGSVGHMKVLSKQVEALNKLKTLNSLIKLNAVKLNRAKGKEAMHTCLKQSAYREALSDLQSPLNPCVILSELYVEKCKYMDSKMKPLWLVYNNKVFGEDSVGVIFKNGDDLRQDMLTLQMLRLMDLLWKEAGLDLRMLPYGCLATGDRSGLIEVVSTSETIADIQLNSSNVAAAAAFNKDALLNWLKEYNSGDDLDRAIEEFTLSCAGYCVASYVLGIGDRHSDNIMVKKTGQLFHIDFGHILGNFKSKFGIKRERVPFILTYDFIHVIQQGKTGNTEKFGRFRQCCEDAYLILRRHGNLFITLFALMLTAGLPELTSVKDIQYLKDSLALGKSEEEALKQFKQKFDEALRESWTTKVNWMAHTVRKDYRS
Protocol: as §1

PIK3Cγ_h = PIK3Cγ_h (Homo sapiens (Human), UniProt P48736); assay: KINOMEscan enzyme binding assay, PIK3Cγ; conditions: DiscoveRx
Sequence of PIK3Cγ_h (P48736 whole entry): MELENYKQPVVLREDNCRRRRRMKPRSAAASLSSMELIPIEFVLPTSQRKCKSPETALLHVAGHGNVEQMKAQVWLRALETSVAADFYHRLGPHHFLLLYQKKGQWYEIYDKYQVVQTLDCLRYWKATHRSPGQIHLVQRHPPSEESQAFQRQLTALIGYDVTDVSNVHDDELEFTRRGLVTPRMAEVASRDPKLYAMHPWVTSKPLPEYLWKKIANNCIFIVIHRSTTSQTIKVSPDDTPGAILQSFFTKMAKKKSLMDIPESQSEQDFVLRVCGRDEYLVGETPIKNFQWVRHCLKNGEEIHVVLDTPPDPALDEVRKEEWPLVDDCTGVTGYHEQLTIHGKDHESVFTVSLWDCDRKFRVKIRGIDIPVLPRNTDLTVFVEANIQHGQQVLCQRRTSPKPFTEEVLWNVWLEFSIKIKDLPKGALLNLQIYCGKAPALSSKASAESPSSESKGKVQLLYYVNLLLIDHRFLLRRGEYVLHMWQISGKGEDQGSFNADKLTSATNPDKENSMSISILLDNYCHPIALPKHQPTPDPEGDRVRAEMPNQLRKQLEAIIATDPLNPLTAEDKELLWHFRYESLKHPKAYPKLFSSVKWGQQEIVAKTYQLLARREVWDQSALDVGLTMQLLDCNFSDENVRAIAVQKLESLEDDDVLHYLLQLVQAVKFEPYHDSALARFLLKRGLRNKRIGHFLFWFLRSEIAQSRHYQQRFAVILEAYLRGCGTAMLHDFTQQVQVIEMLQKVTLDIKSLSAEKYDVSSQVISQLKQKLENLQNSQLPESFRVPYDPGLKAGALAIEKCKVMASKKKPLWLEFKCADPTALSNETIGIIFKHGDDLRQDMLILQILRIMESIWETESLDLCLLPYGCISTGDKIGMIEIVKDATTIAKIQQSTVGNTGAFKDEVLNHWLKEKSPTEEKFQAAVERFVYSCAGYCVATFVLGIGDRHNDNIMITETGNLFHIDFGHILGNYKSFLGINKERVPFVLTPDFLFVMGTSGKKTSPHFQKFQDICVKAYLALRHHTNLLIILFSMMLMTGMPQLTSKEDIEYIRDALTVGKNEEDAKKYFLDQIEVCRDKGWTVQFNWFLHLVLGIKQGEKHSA
Protocol: as §7

[2] = tested on: Akt phosphorylated at Ser473 in PC-3 cells; assay: Cellular assay: phosphorylation of Akt (Ser473) in PC-3 cells, MSD ELISA; type: cell-based; conditions: 60 min incubation with compound, read-out: IC50 pAkt_S473
Protocol: as §2, §3, §4, §5, §6

Sequence of PIK3Cδ_h (O00329 whole entry): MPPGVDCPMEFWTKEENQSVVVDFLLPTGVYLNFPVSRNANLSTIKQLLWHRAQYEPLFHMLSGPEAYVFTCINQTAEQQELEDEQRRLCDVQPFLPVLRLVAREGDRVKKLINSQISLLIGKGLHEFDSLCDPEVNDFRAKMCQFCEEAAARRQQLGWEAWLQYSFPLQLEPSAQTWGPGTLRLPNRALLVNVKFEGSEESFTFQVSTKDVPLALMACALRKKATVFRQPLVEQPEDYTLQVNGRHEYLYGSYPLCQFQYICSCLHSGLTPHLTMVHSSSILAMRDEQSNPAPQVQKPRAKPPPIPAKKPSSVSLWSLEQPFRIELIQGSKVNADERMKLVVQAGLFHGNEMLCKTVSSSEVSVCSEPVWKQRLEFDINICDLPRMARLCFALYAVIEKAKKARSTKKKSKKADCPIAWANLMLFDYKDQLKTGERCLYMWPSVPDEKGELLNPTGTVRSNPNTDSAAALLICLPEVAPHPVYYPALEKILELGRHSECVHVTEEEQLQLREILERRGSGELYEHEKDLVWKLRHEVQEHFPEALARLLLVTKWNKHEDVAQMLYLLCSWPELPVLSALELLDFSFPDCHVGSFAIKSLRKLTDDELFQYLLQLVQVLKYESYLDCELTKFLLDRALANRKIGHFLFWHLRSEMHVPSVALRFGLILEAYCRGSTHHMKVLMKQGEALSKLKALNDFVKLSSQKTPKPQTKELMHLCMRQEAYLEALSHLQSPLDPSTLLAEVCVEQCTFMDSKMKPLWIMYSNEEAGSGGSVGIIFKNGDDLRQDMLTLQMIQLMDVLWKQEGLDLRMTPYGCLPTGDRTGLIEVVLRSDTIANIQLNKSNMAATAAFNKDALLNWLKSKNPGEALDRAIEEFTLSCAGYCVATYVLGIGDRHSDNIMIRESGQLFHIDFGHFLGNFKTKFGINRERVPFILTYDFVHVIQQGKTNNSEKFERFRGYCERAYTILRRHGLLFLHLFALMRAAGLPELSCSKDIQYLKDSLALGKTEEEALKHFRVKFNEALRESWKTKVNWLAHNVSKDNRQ

Row | Compound | Kd (PIK3Cδ_h) [nM] | IC50 ([1]; Homo sapiens, PC-3, 1 h) [nM] | Kd (MTOR_h) [nM] | Kd (PIK3Cα_h) [nM] | Kd (PIK3Cβ_h) [nM] | Kd (PIK3Cγ_h) [nM] | IC50 ([2]; Homo sapiens, PC-3, 1 h) [nM] | IC50 [1] [nM] | IC50 [2] [nM]
1 | Cc1c(Cc2c(CO)nc3c(N)cc(N4CCOC(C)C4)nn23)cccc1C(F)(F)F (stereo not drawn) [Compound 26] | 13800 | ~309 | 8510 | > 30200 | 331 | 11700 | > 513 |  | 
2 | Cc1c(Cc2c(CNCCO)nc3c(-c4ncc[nH]4)cc(N4CCOCC4)nn23)cccc1C(F)(F)F [Compound 4] | 74 | ~120 | > 3310 | 933 | 3.3 | 1150 | ~135 |  | 
3 | Cc1c(Cc2c(C(C)O)nc3c(-c4ncc[nH]4)cc(N4CCOCC4)nn23)cccc1C(F)(F)F (stereo not drawn) [Compound 31] | 71 | 22 | > 10000 | 2290 | 2.5 | 17000 | 46 |  | 
4 | Cc1c(F)cccc1Cc1c(CNCCO)nc2c(N)cc(N3CCOCC3)nn12 [Compound 97] | 200 | 40 | 912 | 11200 | 1.6 | 3720 | 79 |  | 
5 | Cc1nc2c(N)cc(N3CCOCC3)nn2c1Nc1cccc(C(F)(F)F)c1CN1CCC(O)C1 (stereo not drawn) [Compound 78] | 35 |  |  | 3240 | 1.3 |  |  | 26 | 51
6 | Cc1nc2c(N)cc(N3CCOCC3)nn2c1Cc1cccc2c1CNCC2 [Compound 109] | 98 | 82 | 22200 | 12800 | 9 | 2900 | 136 |  | 
7 | Cc1c(Cc2c(C(O)CN)nc3c(N)cc(N4CCOCC4)nn23)cccc1C(F)(F)F (stereo not drawn) [Compound 91] | 148 | > 513 | 776 | 8910 | 1.1 | 8130 | > 513 |  | 
8 | CCC(C)C(N)C(=O)OCc1nc2c(N)cc(N3CCOCC3)nn2c1Cc1cccc(C(F)(F)F)c1C (stereo not drawn) [Compound 81] | 724 | 282 | > 30200 | 26900 | 5 | > 30200 | > 513 |  | 
9 | Cc1nc2c(N)cc(N3CCOCC3)nn2c1Nc1cccc(C(F)(F)F)c1CN1CCCC1 [Compound 62] | 35 | ~74 | > 30200 | 22400 | 10 | 30200 | 110 |  | 
10 | Cc1cccc(Cc2c(C)nc3c(C(=O)O)cc(N4CCOCC4)nn23)c1C [Compound 12] | 69 | ~151 | 9330 | 1070 | < 1.5 | 6170 | ~316 |  | 
11 | Cc1nc2c(N)cc(N3CCOCC3)nn2c1Nc1cccc(C(F)(F)F)c1C1CCN(CCO)CC1 [Compound 73] | 28 | ~72 | > 30200 | 3240 | 0.3 | 24000 | 89 |  | 
12 | Cc1cccc(Nc2c(C)nc3c(N)cc(N4CCOCC4)nn23)c1C [Compound 39] | 31 | ~43 | 4900 | 2570 | 1.1 | 8510 | 34 |  | 
13 | Cc1c(Cc2c(CN(C)CCS(C)(=O)=O)nc3c(N)cc(N4CCOCC4)nn23)cccc1C(F)(F)F [Compound 1] | 513 | 74 | 23400 | 16600 | 2.4 | > 30200 | ~34 |  | 
14 | Cc1c(Cc2c(COC(=O)C(N)Cc3ccccc3)nc3c(N)cc(N4CCOCC4)nn23)cccc1C(F)(F)F (stereo not drawn) [Compound 80] | 6030 | ~195 | > 30200 | > 30200 | 44 | > 30200 | 209 |  | 
15 | Cc1c(Cc2c(COC(=O)C(N)C(C)C)nc3c(N)cc(N4CCOCC4)nn23)cccc1C(F)(F)F (stereo not drawn) [Compound 82] | 263 | ~123 | 25100 | 32400 | 1.3 | > 30200 | 380 |  | 
16 | Cc1c(Cc2c(CO)nc3c(N)cc(N4CCOCC4)nn23)cccc1C(F)(F)F [Compound 14d] |  |  |  |  |  |  |  | 29 | 67
17 | Nc1cc(N2CCOCC2)nn2c(Cc3cccc(C(F)(F)F)c3C3CCN(CCO)CC3)c(CO)nc12 [Compound 105] | 537 | 85 | > 30200 | 26300 | 1.2 | > 30200 |  |  | 
18 | Cc1nc2c(N)cc(N3CCOCC3)nn2c1Nc1cccc(C(F)(F)F)c1CN1CCC(O)C1 (stereo not drawn) [Compound 77] | 47 |  |  | 3160 | 1.4 |  |  | 25 | 58
19 | CCc1c(F)cccc1Cc1c(CNCCO)nc2c(N)cc(N3CCOCC3)nn12 [Compound 101] |  | > 513 |  |  |  |  | > 513 |  | 
20 | Cc1c(Cc2c(CO)nc3c(N)cc(N4CCOCC4)nn23)cccc1C(F)(F)F [Compound 14e] |  |  |  |  |  |  |  | 41 | 52
21 | Cc1nc2c(N)cc(N3CCOCC3)nn2c1Nc1ccccc1N1CCOCC1 [Compound 88] | 69 | 120 | 8710 | 11200 | 12 | 8320 |  |  | 
22 | Cc1c(Cc2c(CO)nc3c(-c4cnc[nH]4)cc(N4CCOCC4)nn23)cccc1C(F)(F)F [Compound 19] |  | 26 |  |  |  |  | 28 |  | 
23 | Cc1nc2c(N)cc(N3CCOCC3)nn2c1Nc1cccc(C(F)(F)F)c1CN1CCC(O)C1 (stereo not drawn) [Compound 74] | 31 | 26 |  | 4900 | 2.2 |  | 30 |  | 
24 | Cc1nc2c(N)cc(N3CCOCC3)nn2c1Nc1cccc(C(F)(F)F)c1CO [Compound 51] | 166 | ~81 | 11500 |  | 2.1 |  | 145 |  | 
